# T1: human salivary amylase (HSA) (Homo sapiens, UniProt P0DUB6)
# T1 sequence (P0DUB6 16-511): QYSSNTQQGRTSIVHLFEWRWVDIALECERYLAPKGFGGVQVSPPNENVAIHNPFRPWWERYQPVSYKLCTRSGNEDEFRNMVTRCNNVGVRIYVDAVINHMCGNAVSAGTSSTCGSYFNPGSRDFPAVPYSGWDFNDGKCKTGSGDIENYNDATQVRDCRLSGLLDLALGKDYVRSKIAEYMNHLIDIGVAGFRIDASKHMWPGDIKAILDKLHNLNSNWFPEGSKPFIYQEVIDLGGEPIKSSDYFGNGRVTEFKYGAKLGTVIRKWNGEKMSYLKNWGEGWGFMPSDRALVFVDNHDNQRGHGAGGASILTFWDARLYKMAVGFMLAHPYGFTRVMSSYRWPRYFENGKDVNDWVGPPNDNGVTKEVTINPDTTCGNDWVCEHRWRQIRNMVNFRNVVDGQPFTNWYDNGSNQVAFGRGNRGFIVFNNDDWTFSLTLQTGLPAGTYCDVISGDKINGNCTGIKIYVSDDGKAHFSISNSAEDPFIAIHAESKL
# T2: porcine pancreatic amylase (PPA) (Sus scrofa, UniProt P00690)
# T2 sequence (P00690 16-511): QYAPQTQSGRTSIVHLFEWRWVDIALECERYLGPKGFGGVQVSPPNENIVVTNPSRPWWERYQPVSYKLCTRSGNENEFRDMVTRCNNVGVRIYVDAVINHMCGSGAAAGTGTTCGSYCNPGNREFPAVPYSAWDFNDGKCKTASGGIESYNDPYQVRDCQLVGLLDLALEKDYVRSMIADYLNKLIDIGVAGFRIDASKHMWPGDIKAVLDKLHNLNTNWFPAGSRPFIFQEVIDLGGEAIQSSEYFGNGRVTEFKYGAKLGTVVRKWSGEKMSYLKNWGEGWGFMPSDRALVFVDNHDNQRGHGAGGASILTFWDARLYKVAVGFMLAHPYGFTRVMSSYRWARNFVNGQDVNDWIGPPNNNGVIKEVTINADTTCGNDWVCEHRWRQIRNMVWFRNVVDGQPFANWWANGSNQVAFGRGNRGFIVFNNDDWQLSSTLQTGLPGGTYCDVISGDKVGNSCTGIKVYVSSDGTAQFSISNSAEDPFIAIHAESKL
# Key:
# [1] = molecular target: T3, AcbK (Actinoplanes sp. SE50/110, UniProt Q8RMD4); assay: X-ray crystallography, […] Å; format: binding; conditions: ATP site; MnCl2, acarbose present
# [2] = molecular target: T3, AcbK; conditions: 2 mM ATP as phosphate donor, MgCl2, pH 8, 37 °C
# [3] = molecular target: T1, human salivary amylase (HSA); assay: colorimetric amylase assay, […] nm; format: biochemical; conditions: 30 °C
# [4] = molecular target: T2, porcine pancreatic amylase (PPA); assay: colorimetric amylase assay, […] nm; format: biochemical; conditions: 30 °C
# [5] = molecular target: the molecule itself; assay: crystal structure
molecule,measurement,setting,value
Nc1ncnc2c1ncn2[C@@H]1O[C@H](COP(=O)(O)OP(=O)(O)NP(=O)(O)O)[C@@H](O)[C@H]1O [AMP-PNP],"X-ray crystallography, 2.4 Å",[1],"crystal structure of AcbK bound to acarbose and a non-hydrolysable ATP analogue, adenylyl-imidodiphosphate (AMP-PNP)"
Nc1ncnc2c1ncn2[C@@H]1O[C@H](COP(=O)(O)OP(=O)(O)OP(=O)(O)O)[C@@H](O)[C@H]1O [ATP],HPLC-MS of acarbose phosphorylation,[2],we incubated the resulting proteins with ATP and acarbose
CC1OC[C@H]2O[C@H](O[C@H]3[C@H](O)[C@@H](O)[C@@H](O[C@H]4[C@H](O)[C@@H](O)[C@@H](O[C@H]5[C@H](O)[C@@H](O)[C@@H](O[C@H]6[C@H](O)[C@@H](O)[C@@H](O[C@H]7[C@H](O)[C@@H](O)[C@@H](O[C@H]8[C@H](O)[C@@H](O)[C@@H](Oc9ccc([N+](=O)[O-])cc9)O[C@@H]8CO)O[C@@H]7CO)O[C@@H]6CO)O[C@@H]5CO)O[C@@H]4CO)O[C@@H]3CO)[C@H](O)[C@@H](O)[C@@H]2O1 (stereo partly drawn) [ethylidene-pNP-G7],"colorimetric amylase assay, 405 nm",[3],cleavage of an oligosaccharide substrate mimic (ethylidene-pNP-G7)
same,"colorimetric amylase assay, 405 nm",[4],cleavage of an oligosaccharide substrate mimic (ethylidene-pNP-G7)
Mak1 (microbiome-derived acarbose kinase 1) (enzyme) MTQADVLVVGGVGVDHIVRVKSLPLPVVDSMMVPPIVTVVGHTGNGVALGVHALGRASAMADVIGDDAEGRLIQDAYSAAGIPITFVTHISGTRRSVNLVTEEGQRMSLYDPRHPFEFIPDPSLWREGIERSRHVHVSIMNWARYALRDAVAAGRSTSTDLHDWDGVADYHKDFAYGADYVFVSAAALRDESGVVADVFARGRAQFVVVMAGSEGARVWRRSDELPLRISPISIPGRPVVDSNGAGDSFVAAFLCHYLDHGDIFGAARAGAVGGAWACGTLGTHTSFVDVETLERLLAR,stoichiometry N,[5],2
"AcbK (acarbose kinase of Actinoplanes sp. SE50/110) (enzyme, UniProt Q8RMD4 1-299, looked up) MSEHTDVLVLGGAGVDTIAYVPELPLPFQDSYVVAAIEPRAGQTGDNVALGLHTLGLRTMHVDVLGDDPEGDLVRAFHTRHGLPFAALPTAAGTKRAVNLVGPDGRRLSLWDGSREAEEDRYPAALIAAHTAHARHVHVCITPPGQHVFGQLNDLPVTVSTDLHNWDGAYEGFEVYAFNADLVFLSATALTDVAATMRRVIDRGRARLVVATDGAHGGSVLVRGETEVRRYAAVAPEAPVVDSNGAGDAFVSGFLFGHLAGEPLETCLRYGAIAGAYACTIPATRAGAIDRAALLRPAA",stoichiometry N,[5],2

# From article PMC10258454 (Nature, 2021)
